Marks after values point to notes of the source that are not given here.
Test: Fatty acid concentration and composition of plasma lipid subfractions (GC) of Compound A-treated DIO mice
Type: in vivo, mouse
Conditions: DIO mouse plasma, 30 mg/kg, GC
Experimental: FIG. 16(b) provides fatty acid composition of total plasma and each of the 4 plasma lipid subfractions of vehicle treated (WT) and 30 mg/kg Compound A-treated WT DIO mice (WT+A). (a-b) n=3 samples per group (each sample pooled from 2 mice). (a) Data are shown as minimum to maximum. t-test *P<0.05, **P<0.01, ***P<0.001.

[1] = Phospholipids, mean % composition
[2] = Total lipids, mean % composition
[3] = Triglycerides, mean % composition

SMILES: COc1ccn2c(=O)c(-c3cnn(CC(F)(F)C(F)(F)F)c3)c(C(F)(F)F)nc2c1 [Compound A, 8-methoxy-3-(1-(2,2,3,3,3-pentafluoropropyl)-1H-pyrazol-4-yl)-2-(trifluoromethyl)-4H-pyrido[1,2-a]pyrimidin-4-one]
- C16:1n7t composition, Phospholipids [1]: 0.05%
- C18:0 composition, Phospholipids [1]: 14.4*** %
- C18:1n9 composition, Phospholipids [1]: 12.3** %
- C18:1t composition, Phospholipids [1]: 0.18%
- C18:2n6 composition, Phospholipids [1]: 19.0%
- C18:2n6t composition, Phospholipids [1]: 0.22** %
- C18:3n3 composition, Phospholipids [1]: 0.05%
- C18:3n6 composition, Phospholipids [1]: 0.2* %
- C20:0 composition, Phospholipids [1]: 0.07* %
- C20:1n9 composition, Phospholipids [1]: 0.28%
- C20:2n6 composition, Phospholipids [1]: 0.43* %
- C20:3n6 composition, Phospholipids [1]: 18.2*** %
- C20:4n6 composition, Phospholipids [1]: 1.49*** %
- C20:5n3 composition, Phospholipids [1]: 0.06* %
- C22:0 composition, Phospholipids [1]: 0.08%
- C22:4n6 composition, Phospholipids [1]: 0.10*** %
- C22:5n3 composition, Phospholipids [1]: 0.61%
- C22:5n6 composition, Phospholipids [1]: 0.09** %
- C22:6n3 composition, Phospholipids [1]: 3.33*** %
- C24:0 composition, Phospholipids [1]: 0.04%
- C24:1n9 composition, Phospholipids [1]: 0.16%
- C14:0 concentration, Total (Total lipids, mean): 7.7 µg/mL
- C16:0 concentration, Total (Total lipids, mean): 635 µg/mL
- C16:1n7 concentration, Total (Total lipids, mean): 41.4 µg/mL
- C18:0 concentration, Total (Total lipids, mean): 285** μg mL^−1
- C18:1n9 concentration, Total (Total lipids, mean): 478 µg/mL
- C18:1t concentration, Total (Total lipids, mean): 3.6 µg/mL
- C18:2n6 concentration, Total (Total lipids, mean): 870 µg/mL
- C18:2n6t concentration, Total (Total lipids, mean): 6.0 µg/mL
- C18:3n3 concentration, Total (Total lipids, mean): 5.9** μg mL^−1
- C18:3n6 concentration, Total (Total lipids, mean): 23.3** μg mL^−1
- C20:0 concentration, Total (Total lipids, mean): 2.3** μg mL^−1
- C20:1n9 concentration, Total (Total lipids, mean): 8.4 µg/mL
- C20:3n6 concentration, Total (Total lipids, mean): 465*** μg mL^−1
- C20:4n6 concentration, Total (Total lipids, mean): 92.3** μg mL^−1
- C20:5n3 concentration, Total (Total lipids, mean): 2.7** μg mL^−1
- C22:0 concentration, Total (Total lipids, mean): 3.3** μg mL^−1
- C22:4n6 concentration, Total (Total lipids, mean): 2.1*** μg mL^−1
- C22:5n3 concentration, Total (Total lipids, mean): 2.8*** μg mL^−1
- C22:5n6 concentration, Total (Total lipids, mean): 2.4*** μg mL^−1
- C22:6n3 concentration, Total (Total lipids, mean): 98.5** μg mL^−1
- C24:1n9 concentration, Total (Total lipids, mean): 6.9 µg/mL
- Total fatty acids concentration, Total (Total lipids, mean): 3058* μg mL^−1
- C14:0 composition, Total [2]: 0.25%
- C16:0 composition, Total [2]: 20.8%
- C16:1n7 composition, Total [2]: 1.35%
- C16:1n7t composition, Total [2]: 0.1%
- C18:0 composition, Total [2]: 9.3%
- C18:1n9 composition, Total [2]: 15.7%
- C18:1t composition, Total [2]: 0.12%
- C18:2n6 composition, Total [2]: 28.5%
- C18:2n6t composition, Total [2]: 0.2%
- C18:3n3 composition, Total [2]: 0.19%
- C18:3n6 composition, Total [2]: 0.76%
- C20:0 composition, Total [2]: 0.08%
- C20:1n9 composition, Total [2]: 0.27%
- C20:2n6 composition, Total [2]: 0.32%
- C20:3n6 composition, Total [2]: 15.2%
- C20:4n6 composition, Total [2]: 3.01%
- C20:5n3 composition, Total [2]: 0.09*** %
- C22:0 composition, Total [2]: 0.11%
- C22:4n6 composition, Total [2]: 0.07*** %
- C22:5n3 composition, Total [2]: 0.09*** %
- C22:5n6 composition, Total [2]: 0.08*** %
- C22:6n3 composition, Total [2]: 3.22%
- C24:0 composition, Total [2]: 0.06%
- C24:1n9 composition, Total [2]: 0.23** %
- C14:0 concentration, Triglycerides (Triglycerides, mean): 26.7 µg/mL
- C16:0 concentration, Triglycerides (Triglycerides, mean): 135 µg/mL
- C16:1n7 concentration, Triglycerides (Triglycerides, mean): 6.2 µg/mL
- C16:1n7t concentration, Triglycerides (Triglycerides, mean): 0.7 µg/mL
- C18:0 concentration, Triglycerides (Triglycerides, mean): 80.4 µg/mL
- C18:1n9 concentration, Triglycerides (Triglycerides, mean): 161* μg mL^−1
- C18:1t concentration, Triglycerides (Triglycerides, mean): 6.1 µg/mL
- C18:2n6 concentration, Triglycerides (Triglycerides, mean): 42.6** μg mL^−1
- C18:2n6t concentration, Triglycerides (Triglycerides, mean): 9.0 µg/mL
- C18:3n3 concentration, Triglycerides (Triglycerides, mean): 1.8 µg/mL
- C18:3n6 concentration, Triglycerides (Triglycerides, mean): 0.7 µg/mL
- C20:0 concentration, Triglycerides (Triglycerides, mean): 1.6 µg/mL
- C20:1n9 concentration, Triglycerides (Triglycerides, mean): 5.6* μg mL^−1
- C20:2n6 concentration, Triglycerides (Triglycerides, mean): 1.7 µg/mL
- C20:3n6 concentration, Triglycerides (Triglycerides, mean): 8.3 µg/mL
- C20:4n6 concentration, Triglycerides (Triglycerides, mean): 2.5*** μg mL^−1
- C20:5n3 concentration, Triglycerides (Triglycerides, mean): 3.7** μg mL^−1
- C22:0 concentration, Triglycerides (Triglycerides, mean): 3.5 µg/mL
- C22:4n6 concentration, Triglycerides (Triglycerides, mean): 2.5* μg mL^−1
- C22:5n3 concentration, Triglycerides (Triglycerides, mean): 49.9* μg mL^−1
- C22:5n6 concentration, Triglycerides (Triglycerides, mean): 2.5 µg/mL
- C22:6n3 concentration, Triglycerides (Triglycerides, mean): 0.6** μg mL^−1
- C24:0 concentration, Triglycerides (Triglycerides, mean): 1.2 µg/mL
- C24:1n9 concentration, Triglycerides (Triglycerides, mean): 2.3 µg/mL
- Total fatty acids concentration, Triglycerides (Triglycerides, mean): 556* μg mL^−1
- C14:0 composition, Triglycerides [3]: 4.77* %
- C16:0 composition, Triglycerides [3]: 24.2%
- C16:1n7 composition, Triglycerides [3]: 1.10%
- C16:1n7t composition, Triglycerides [3]: 0.12%
- C18:0 composition, Triglycerides [3]: 14.5%
- C18:1n9 composition, Triglycerides [3]: 29.0%
- C18:1t composition, Triglycerides [3]: 1.09%
- C18:2n6 composition, Triglycerides [3]: 7.68** %
- C18:2n6t composition, Triglycerides [3]: 1.64* %
- C18:3n3 composition, Triglycerides [3]: 0.33%
- C18:3n6 composition, Triglycerides [3]: 0.13%
- C20:0 composition, Triglycerides [3]: 0.28%
- C20:1n9 composition, Triglycerides [3]: 1.01%
- C20:2n6 composition, Triglycerides [3]: 0.31%
- C20:3n6 composition, Triglycerides [3]: 1.5%
- C20:4n6 composition, Triglycerides [3]: 0.46*** %
- C20:5n3 composition, Triglycerides [3]: 0.67%
- C22:0 composition, Triglycerides [3]: 0.63%
- C22:4n6 composition, Triglycerides [3]: 0.45%
- C22:5n3 composition, Triglycerides [3]: 8.98*** %
- C22:5n6 composition, Triglycerides [3]: 0.45* %
- C22:6n3 composition, Triglycerides [3]: 0.12*** %
- C24:0 composition, Triglycerides [3]: 0.23%
- C24:1n9 composition, Triglycerides [3]: 0.41%
- EPA/AA, Cholesterol ester (Table 5.5) (ratio, Cholesterol ester): 0.039*
- EPA/AA, Cholesterol ester (Table 5.6) (ratio, Cholesterol ester): 0.039*
- EPA/AA, Free fatty acids (Table 5.5) (ratio, Free fatty acids): 2.94*
- EPA/AA, Free fatty acids (Table 5.6) (ratio, Free fatty acids): 2.94*
- EPA/AA, Phospholipids (Table 5.5) (ratio, Phospholipids): 0.038*
- EPA/AA, Phospholipids (Table 5.6) (ratio, Phospholipids): 0.038
- EPA/AA, Total (Table 5.5) (ratio, Total lipids): 0.030**
- EPA/AA, Total (Table 5.6) (ratio, Total lipids): 0.030**
- EPA/AA, Triglycerides (Table 5.5) (ratio, Triglycerides): 1.51**
- EPA/AA, Triglycerides (Table 5.6) (ratio, Triglycerides): 1.51**

From patent US20260183297A1, “SELECTION OF PATIENTS FOR THE TREATMENT OF FADS1-MEDIATED DISEASES OR DISORDERS USING FADS-1 INHIBITORS” (AMGEN INC., priority 2022, published 2026)
